Laboratory results as given in patent US20130203659A1 (priority 2006, published 2013).
Read-outs that look alike come from different tables or passages of the source. Non-standard residues stand in square brackets, D forms with d. Primed or numbered codes have the meaning given here. No end group written: not given here. Aib′ = alpha aminobutyric acid (source's wording); 20k mPEG = methoxy-polyethylene glycol, 20 kDa; 20k PEG = polyethylene glycol, 20 kDa

What was measured:
[1] = test system: db/db diabetic mouse model; experiment: Fed blood glucose in db/db diabetic mice; assay type: in vivo; settings: for decrease of blood glucose levels over time (FIG. 13): 10 ug injected into each mouse
Method: The db/db mice are commercially available from The Jackson Laboratory JAX® GEMM® Strain—Spontaneous Mutation Congenic Mice, and are homozygous for the diabetes spontaneous mutation (Lepr^db). These mice become identifiably obese around 3 to 4 weeks of age. The criterion for selection for each mouse to enter the study was blood glucose of at least 300 mg/dL. Db/db mice at 8.5 weeks of age (for a chronic 1-2 wk study) to about 10-11 weeks of age (for an acute 1-3 day study) were injected once with each tested compound (acute experiment) or multiple times (chronic experiment). […] The mice were then placed in a fresh cage without any chow, so as to limit any variability in blood glucose levels associated with eating behaviors. Time points of 1 hr, 4 hr, 6 hr, and 24 hr were normally taken. When at the 24 hour time point blood glucose values were below where they started, further time points at every 24 hrs were taken until blood glucose returned to the baseline levels. Normal chow was given back after the 6 hr time point.
Tachyphylaxis was determined by multiple injections. A second injection of the compound was administered after the blood glucose levels sufficiently returned to starting baseline levels. At this point, it was evident whether the compound had the same effect/efficacy, or if there was any noticeable tachyphylaxis.

mouse GLP-1 receptor = molecular target: T1, mouse GLP-1 receptor (Mus musculus, UniProt O35659); experiment: GLP-1R reporter assay (cAMP-regulated luciferase, CHOK1 cells), mouse receptor; assay type: cell-based; settings: 6 hours exposure
T1 construct: expressed in transfected cells; host or cells: CHOK1 cells with a cAMP-regulated luciferase reporter construct
T1 sequence (O35659 22-463): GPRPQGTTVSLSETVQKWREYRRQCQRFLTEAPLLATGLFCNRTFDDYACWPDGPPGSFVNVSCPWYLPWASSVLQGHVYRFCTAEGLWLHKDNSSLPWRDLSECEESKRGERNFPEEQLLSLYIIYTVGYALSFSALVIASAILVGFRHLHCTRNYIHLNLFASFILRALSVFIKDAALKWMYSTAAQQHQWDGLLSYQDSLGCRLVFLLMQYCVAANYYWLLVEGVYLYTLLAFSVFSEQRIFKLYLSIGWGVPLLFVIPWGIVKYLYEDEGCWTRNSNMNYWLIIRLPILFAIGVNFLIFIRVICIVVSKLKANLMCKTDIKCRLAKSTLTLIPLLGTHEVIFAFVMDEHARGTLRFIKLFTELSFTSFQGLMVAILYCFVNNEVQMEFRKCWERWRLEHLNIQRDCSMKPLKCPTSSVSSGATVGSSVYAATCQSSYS
Method: (§1) A. GLP-1R Reporter Assay:
(§2) Increased cAMP levels were measured through enhanced expression of a luciferase reporter gene. […] The evening prior to assay, the cells were washed, the medium replaced with serum-free medium containing 0.5% protease-free bovine serum albumin (BSA), and then cultured overnight. […] Cell lysates were assayed for luciferase activity using the Luciferase Assay System (Promega Corporation, Madison, Wis.). Luciferase activity was measured using a Luminoskan Ascent (Thermo Electron Corporation, Marietta, Ohio). Nonlinear regression analyses of resultant compound concentration curves were performed using GraphPad Prism (GraphPad Software, Inc., San Diego, Calif.).

human GLP-1 receptor [2] = molecular target: T2, human GLP-1 receptor (Homo sapiens, UniProt P43220); experiment: In vitro GLP-1 receptor binding (125I-GLP-1 ligand binding assay), human receptor
T2 construct: expressed in transfected cells; host or cells: CHOK1 cells with a cAMP-regulated luciferase reporter construct
Method: Cells were sedimented at 1500 rpm for 10 minutes. The resulting pellets were homogenized in 15 mls of ice cold sucrose buffer (25 mM Tris-HCl, 0.32 M Sucrose, 0.25 g/L sodium azide, pH 7.4) with a motorized, glass fitted, Teflon homogenizer. The homogenate was centrifuged at 48,000×g at 4° C. for 10 minutes, resuspended in 25 ml assay buffer (50 mM Tris-HCl, 5 mM MgCl2, 10 mg/ml protease-free BSA, 0.1 mg/ml STI, and 0.1 mg/ml Pefabloc, pH 7.4) with a Tissue-Tearor (Biospec Products), then centrifuged again at 48,000×g for 10 minutes. The pellets were homogenized for a third time in 15 ml assay buffer using the Tissue-Tearor and again centrifuged at 48,000×g for 10 minutes. The resulting pellet was resuspended in assay buffer at a wet weight concentration of 4 mg/ml.
Binding assays were performed in 96-well U-bottom plates. […] Bound radioactivity was determined using a TopCount microplate scintillation and luminescence counter (Packard Instrument Company, PerkinElmer, Shelton, Conn.). Nonlinear regression analyses of resulting concentration curves were performed using GraphPad Prism (GraphPad Software, Inc., San Diego, Calif.).

human GLP-1 receptor [3] = molecular target: T2, human GLP-1 receptor; experiment: GLP-1R reporter assay (cAMP-regulated luciferase, CHOK1 cells), human receptor; assay type: cell-based; settings: luciferase reporter, 6 hours exposure; read-out: EC50 human
Method: as §1, §2

[4] = test system: C57B16 (normal lean) mice; experiment: Blood glucose and intraperitoneal glucose tolerance test in C57B16 (normal lean) mice; assay type: in vivo, mouse
Method: C57B16 (normal lean) mice were used at 10 to 12 weeks of age. These mice are commercially available through any vendor, such as Jackson Laboratories or Charles River, and are considered to be normal. The term “lean” is used to contrast these mice to obese db/db mice. C57B16 mice were randomized on body weight. […] After 4-5 hrs, an intraperitoneal glucose tolerance test (glucose tolerance test measures the body's ability to metabolize glucose) was performed using 2 g/kg of glucose dose. Blood glucose levels were measured 30 min and 90 minutes after the glucose load was administered and 24 hours or until blood glucose levels were back to the original values.

T2 sequence (P43220 24-463): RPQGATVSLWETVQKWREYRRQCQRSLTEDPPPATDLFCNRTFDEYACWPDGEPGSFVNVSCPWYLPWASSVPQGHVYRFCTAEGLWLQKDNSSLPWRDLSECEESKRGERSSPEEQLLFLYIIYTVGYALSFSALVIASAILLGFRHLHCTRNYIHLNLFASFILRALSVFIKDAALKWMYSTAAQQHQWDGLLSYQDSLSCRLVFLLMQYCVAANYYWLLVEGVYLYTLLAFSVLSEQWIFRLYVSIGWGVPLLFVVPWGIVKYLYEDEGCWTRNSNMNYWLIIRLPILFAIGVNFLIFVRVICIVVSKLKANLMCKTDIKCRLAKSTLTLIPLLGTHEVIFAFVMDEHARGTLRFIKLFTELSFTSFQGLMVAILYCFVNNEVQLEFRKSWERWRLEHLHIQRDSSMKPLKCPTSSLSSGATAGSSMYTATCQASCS

Molecule | EC50 (mouse GLP-1 receptor) | IC50 (human GLP-1 receptor [2]) | EC50 (human GLP-1 receptor [3]) | also measured
cgGLP-20: SEQ ID NO: 25 + 20 k mPEG (H[Aib′]EGTFTSDVSSYLE[Aib′]QAAKEFIAWLVKGRGC(20k mPEG)SG; not fully specified) | – | – | – | decrease of blood glucose levels over time (FIG. 13) [1]: significant decrease in blood glucose levels over a 48 hour time period
cgGLP-23: SEQ ID NO: 17 + 20 k PEG (HGEGTFTSDVSSYLE[Aib′]QAAKEFIAWLVKGRGC(20k PEG)-NH2; not fully specified; printed as HGEGT FTSDV SSYLE ZQAAK EFIAW LVKGR GC-amide; also: Aib defined in source as alpha aminobutyric acid) | – | – | – | decrease of blood glucose levels over time (FIG. 13) [1]: significant decrease in blood glucose levels over a 48 hour time period
mgGLP32: SEQ ID NO: 18 + 20 k PEG (HGEGTFTSDVSSYLE[Aib′]QAAKEFIAWLVKGRGC(20k PEG)A-NH2; not fully specified) | – | – | – | lowering of blood glucose levels (FIG. 14) ([1]; 10 ug per mouse): lowered blood glucose levels; time needed for blood glucose levels to return to normal levels ([1]; 10 ug/mouse): 72 h; lowering of blood glucose at different doses (FIG. 15) ([1]; 5 and 10 μg/mouse): lowered blood glucose levels for 24 hours in a dose dependent fashion; tachyphylaxis, multiple dose experiment ([1]; second bolus the next day): The same result was observed; tachyphylaxis after the 4th dose (FIG. 19) ([4]; 4-day multiple dose experiment): No tachyphylaxyis was observed after the 4th dose; blood glucose after injection, before the GTT (FIG. 16) ([4]; C57B16 mice, first 52 hours after injection): decreased blood glucose to the same extent during the first 52 hours; blood glucose during the 4 hour fast (FIG. 19) ([4]; multiple dose experiment): blood glucose was decreased during the 4 hour fast; blood glucose spike during first and second GTT (FIG. 19) ([4]; multiple dose experiment, GTT after first and 4th injection): no blood glucose spike was seen during the first and second GTT
cgGLP-18: SEQ ID NO: 12 + 20k PEG (HXEGTFTSDVSSYLEGQAAKEFIAWLVKGRGCSGG; 20k PEG) | – | – | – | ability to lower blood glucose over a 72 hour time span (FIG. 12) ([1]; relative to control): lowered blood glucose relative to control
CC[C@H](C)[C@H](NC(=O)[C@H](Cc1ccccc1)NC(=O)[C@H](CCC(=O)O)NC(=O)[C@H](CCCCN)NC(=O)[C@H](C)NC(=O)[C@H](C)NC(=O)[C@H](CCC(N)=O)NC(=O)CNC(=O)[C@H](CCC(=O)O)NC(=O)[C@H](CC(C)C)NC(=O)[C@H](Cc1ccc(O)cc1)NC(=O)[C@H](CO)NC(=O)[C@H](CO)NC(=O)[C@@H](NC(=O)[C@H](CC(=O)O)NC(=O)[C@H](CO)NC(=O)[C@@H](NC(=O)[C@H](Cc1ccccc1)NC(=O)[C@@H](NC(=O)CNC(=O)[C@H](CCC(=O)O)NC(=O)[C@H](C)NC(=O)[C@H](Cc1c[nH]cn1)NC(=O)[C@H](Cc1c[nH]cn1)NC(=O)[C@H](Cc1c[nH]cn1)NC(=O)[C@@H](N)CCSC)[C@@H](C)O)[C@@H](C)O)C(C)C)C(=O)N[C@@H](C)C(=O)N[C@@H](Cc1c[nH]c2ccccc12)C(=O)N[C@@H](CC(C)C)C(=O)N[C@H](C(=O)N[C@@H](CCCCN)C(=O)NCC(=O)N[C@@H](CCCNC(=N)N)C(=O)O)C(C)C [MHH-GLP1, MHH HAEGTFTSDVSSYLEGQAAKEFIAWLVKGR] | 5 nM | 350 nM | 1 nM | –

More lines, main results first:

EC50 (mouse GLP-1 receptor) | IC50 (human GLP-1 receptor [2]) | EC50 (human GLP-1 receptor [3]) | Molecule | also measured
2 nM | 53 nM | 0.4 nM | CC[C@H](C)[C@H](NC(=O)[C@H](Cc1ccccc1)NC(=O)[C@H](CCC(=O)O)NC(=O)[C@H](CCCCN)NC(=O)[C@H](C)NC(=O)[C@H](C)NC(=O)[C@H](CCC(N)=O)NC(=O)CNC(=O)[C@H](CCC(=O)O)NC(=O)[C@H](CC(C)C)NC(=O)[C@H](Cc1ccc(O)cc1)NC(=O)[C@H](CO)NC(=O)[C@H](CO)NC(=O)[C@@H](NC(=O)[C@H](CC(=O)O)NC(=O)[C@H](CO)NC(=O)[C@@H](NC(=O)[C@H](Cc1ccccc1)NC(=O)[C@@H](NC(=O)CNC(=O)[C@H](CCC(=O)O)NC(=O)[C@H](C)NC(=O)[C@H](Cc1c[nH]cn1)NC(=O)[C@@H](N)CO)[C@@H](C)O)[C@@H](C)O)C(C)C)C(=O)N[C@@H](C)C(=O)N[C@@H](Cc1c[nH]c2ccccc12)C(=O)N[C@@H](CC(C)C)C(=O)N[C@H](C(=O)N[C@@H](CCCCN)C(=O)NCC(=O)N[C@@H](CCCNC(=N)N)C(=O)O)C(C)C [S-GLP-1, S HAEGTFTSDVSSYLEGQAAKEFIAWLVKGR] | –
9 nM | – | 1 nM | cgGLP-9: SEQ ID NO: 6 + 20k PEG dimer (HGEGTFTSDVSSYLEGCAAKEFIAWLVKGRG; not fully specified (residue 17); also: 20k PEG dimer) | IC50 (human GLP-1 receptor [2]; membranes of CHOK1 cells expressing human GLP-1 receptor, 0.2 nM 125I-GLP-1): > 1000 nM
2 nM | 53 nM | 0.3 nM | CC[C@H](C)[C@H](NC(=O)[C@H](Cc1ccccc1)NC(=O)[C@H](CCC(=O)O)NC(=O)[C@H](CCCCN)NC(=O)[C@H](C)NC(=O)[C@H](C)NC(=O)[C@H](CCC(N)=O)NC(=O)CNC(=O)[C@H](CCC(=O)O)NC(=O)[C@H](CC(C)C)NC(=O)[C@H](Cc1ccc(O)cc1)NC(=O)[C@H](CO)NC(=O)[C@H](CO)NC(=O)[C@@H](NC(=O)[C@H](CC(=O)O)NC(=O)[C@H](CO)NC(=O)[C@@H](NC(=O)[C@H](Cc1ccccc1)NC(=O)[C@@H](NC(=O)CNC(=O)[C@H](CCC(=O)O)NC(=O)[C@H](C)NC(=O)[C@H](Cc1c[nH]cn1)NC(=O)[C@@H](N)[C@@H](C)O)[C@@H](C)O)[C@@H](C)O)C(C)C)C(=O)N[C@@H](C)C(=O)N[C@@H](Cc1c[nH]c2ccccc12)C(=O)N[C@@H](CC(C)C)C(=O)N[C@H](C(=O)N[C@@H](CCCCN)C(=O)NCC(=O)N[C@@H](CCCNC(=N)N)C(=O)O)C(C)C [T-GLP-1, T HAEGTFTSDVSSYLEGQAAKEFIAWLVKGR] | –
3 nM | 100 nM | 0.5 nM | CC[C@H](C)[C@H](NC(=O)[C@H](Cc1ccccc1)NC(=O)[C@H](CCC(=O)O)NC(=O)[C@H](CCCCN)NC(=O)[C@H](C)NC(=O)[C@H](C)NC(=O)[C@H](CCC(N)=O)NC(=O)CNC(=O)[C@H](CCC(=O)O)NC(=O)[C@H](CC(C)C)NC(=O)[C@H](Cc1ccc(O)cc1)NC(=O)[C@H](CO)NC(=O)[C@H](CO)NC(=O)[C@@H](NC(=O)[C@H](CC(=O)O)NC(=O)[C@H](CO)NC(=O)[C@@H](NC(=O)[C@H](Cc1ccccc1)NC(=O)[C@@H](NC(=O)CNC(=O)[C@H](CCC(=O)O)NC(=O)[C@H](C)NC(=O)[C@H](Cc1c[nH]cn1)NC(=O)[C@H](CCSC)NC(=O)[C@@H](N)CCSC)[C@@H](C)O)[C@@H](C)O)C(C)C)C(=O)N[C@@H](C)C(=O)N[C@@H](Cc1c[nH]c2ccccc12)C(=O)N[C@@H](CC(C)C)C(=O)N[C@H](C(=O)N[C@@H](CCCCN)C(=O)NCC(=O)N[C@@H](CCCNC(=N)N)C(=O)O)C(C)C [MM-GLP1, MM HAEGTFTSDVSSYLEGQAAKEFIAWLVKGR] | –
